On the set-up of series [1]: method as in PMID 18256617, PMID 32733068, PMID 32125789. The conditions noted are these: cited from earlier work.
In the next series the target is T1, telomerase (Homo sapiens, UniProt O14746).
T1 construct: A549 cells (human epithelial cell lung carcinoma, ATCC, Manassas, VA) were lysed in; host or cells: A549 cell lysate (CHAPS extract, 5 µg total protein)
The series is described as follows: TRAP / RTQ-TRAP telomerase activity assay in A549 cell-free lysates.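 Also: telomerase activity measured in cell-free extracts of human A549 epithelial lung carcinoma cells, tested across a range of inhibitor concentrations.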 The series is classed as biochemical. The conditions noted are these: telomerase inhibition, mean ± SEM.

The target of series [2] is T2, telomerase inside living cancer cells HCC44 (Homo sapiens, UniProt O14746).
T2 construct: host or cells: HCC44
Briefly: Living-cell TRAP assay, HCC44. The series is classed as cell-based. Particulars: percent of control cells, 10 µM, 48 h.
Description: (§1) The Telomeric Repeat Amplification Protocol (TRAP) [61] was used to evaluate the activity of telomerase, with some changes that we have previously described [62, 63]. A549 cells (human epithelial cell lung carcinoma, ATCC, Manassas, VA) were lysed in (10 mM) Tris-HCl, pH 7.5, (1 mM) EGTA, (1 mM) MgCl2, (5 mM) 2-mercaptoethanol, (0.1 mM) PMSF, (0.5%) CHAPS, and (10%) glycerol (Sigma-Aldrich, St. Louis, MO, USA) and centrifugation. The supernatants were kept at -80 °C. The BCA-1 Protein Assay Kit was used to assess the protein concentration in cell extracts (Sigma-Aldrich, St. Louis, MO, USA). […] To inactivate telomerase, the cells were elongated for 30 min at 37 °C and 10 min at 96 °C. Copy CX-primer was added to the elongation mixture along with 0.1 μL ([NT]) and 2.5 units Taq-polymerase, followed by the following PCR: 94 °C for 5 min; 30 cycles of 94 °C for 30 s, 50 °C for 30 s, and 72 °C for 40 s, and 72 °C for 5 min. TBE buffer and (12%) nondenaturing PAAG electrophoresis were used to visualize the PCR product. 10 μL of each sample was placed in each well of gel comb. The gels were stained with the SYBR Green I (Invitrogen, Grand Island, NY, USA), then photographed under the UV light in ChemiDocTM XRS imaging system and analyzed with GelAnalyzer 2010.

The target in series [3] is T3, telomerase inside living cancer cells NCI-H23 (Homo sapiens, UniProt O14746).
T3 construct: host or cells: NCI-H23
The series is described as follows: Living-cell TRAP assay, NCI-H23. The series is classed as cell-based. Particulars: percent of control cells, 10 µM, 48 h.
Description: as §1

Series [4] has as its target T4, telomerase inside living cancer cells A549 (Homo sapiens, UniProt O14746).
T4 construct: host or cells: A549
Briefly: Living-cell TRAP assay, A549. The series is classed as cell-based. The conditions noted are these: percent of control cells, 10 µM, 48 h.
Description: as §1

In series [5] the test system is advanced non-small cell lung cancer. Further details: method as in PMID 32733068, PMID 25467017. The conditions noted are these: phase II clinical trials, patients with advanced non-small cell lung cancer; cited from earlier work.

As a reminder, the IC90 is the point of the concentration-response curve where the effect stands at 90%. Read a high IC90 as a need for much substance. Broadly, the IC50 is the concentration that inhibits the measured activity by half. A higher IC50 goes with weaker potency in that assay. Broadly, the melting point is the temperature of the solid-liquid transition.

T1 sequence (O14746 whole entry): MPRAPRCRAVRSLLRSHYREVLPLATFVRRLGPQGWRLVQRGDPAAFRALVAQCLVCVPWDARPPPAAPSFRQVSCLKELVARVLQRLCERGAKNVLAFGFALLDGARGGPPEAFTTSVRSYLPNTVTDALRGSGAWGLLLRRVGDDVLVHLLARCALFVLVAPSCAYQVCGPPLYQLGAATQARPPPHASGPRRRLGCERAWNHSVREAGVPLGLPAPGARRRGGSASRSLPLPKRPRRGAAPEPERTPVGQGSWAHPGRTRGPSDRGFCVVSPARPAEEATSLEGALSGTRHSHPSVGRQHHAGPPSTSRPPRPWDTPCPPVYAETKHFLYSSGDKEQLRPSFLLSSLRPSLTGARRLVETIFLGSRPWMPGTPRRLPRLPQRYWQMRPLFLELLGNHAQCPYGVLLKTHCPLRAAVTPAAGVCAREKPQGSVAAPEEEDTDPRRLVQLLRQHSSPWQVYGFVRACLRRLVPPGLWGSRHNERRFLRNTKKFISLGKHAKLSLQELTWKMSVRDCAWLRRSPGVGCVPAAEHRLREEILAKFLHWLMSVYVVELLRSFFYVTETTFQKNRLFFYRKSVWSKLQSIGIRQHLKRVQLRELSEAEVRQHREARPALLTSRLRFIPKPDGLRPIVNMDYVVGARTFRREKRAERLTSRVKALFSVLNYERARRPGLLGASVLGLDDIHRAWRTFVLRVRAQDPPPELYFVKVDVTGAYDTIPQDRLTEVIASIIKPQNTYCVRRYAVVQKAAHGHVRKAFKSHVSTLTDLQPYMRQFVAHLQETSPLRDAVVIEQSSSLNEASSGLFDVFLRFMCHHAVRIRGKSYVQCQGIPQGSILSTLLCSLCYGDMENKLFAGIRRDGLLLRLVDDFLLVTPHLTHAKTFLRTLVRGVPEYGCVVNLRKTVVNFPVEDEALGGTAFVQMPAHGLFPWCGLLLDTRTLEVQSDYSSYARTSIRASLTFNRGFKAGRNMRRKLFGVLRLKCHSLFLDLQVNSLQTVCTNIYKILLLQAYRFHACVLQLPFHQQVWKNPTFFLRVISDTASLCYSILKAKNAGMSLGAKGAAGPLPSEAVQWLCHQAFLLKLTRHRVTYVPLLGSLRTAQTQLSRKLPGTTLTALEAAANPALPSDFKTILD
T1 sequence (O60832 whole entry partner): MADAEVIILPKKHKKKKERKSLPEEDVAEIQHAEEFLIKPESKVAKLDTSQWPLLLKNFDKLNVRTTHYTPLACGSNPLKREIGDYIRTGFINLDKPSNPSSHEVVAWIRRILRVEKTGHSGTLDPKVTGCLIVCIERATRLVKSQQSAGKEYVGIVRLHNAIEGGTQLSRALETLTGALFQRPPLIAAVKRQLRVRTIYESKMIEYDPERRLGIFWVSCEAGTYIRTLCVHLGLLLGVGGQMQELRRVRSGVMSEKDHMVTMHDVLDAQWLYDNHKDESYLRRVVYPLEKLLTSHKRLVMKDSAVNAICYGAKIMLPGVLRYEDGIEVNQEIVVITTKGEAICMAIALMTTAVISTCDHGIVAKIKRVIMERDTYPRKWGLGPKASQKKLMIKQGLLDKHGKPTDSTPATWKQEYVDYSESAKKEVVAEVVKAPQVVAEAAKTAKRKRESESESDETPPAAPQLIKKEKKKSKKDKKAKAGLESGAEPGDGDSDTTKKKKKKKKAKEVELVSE
T1 sequence (Q9NX24 whole entry partner): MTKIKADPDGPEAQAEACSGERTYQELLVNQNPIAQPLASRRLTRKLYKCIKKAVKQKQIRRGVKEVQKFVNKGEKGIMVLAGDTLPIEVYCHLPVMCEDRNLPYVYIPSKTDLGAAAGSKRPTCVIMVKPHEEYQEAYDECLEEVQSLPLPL
T1 sequence (Q9NPE3 whole entry partner): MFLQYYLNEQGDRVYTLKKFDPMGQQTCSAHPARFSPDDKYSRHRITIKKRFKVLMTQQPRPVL
T1 sequence (Q9NY12 whole entry partner): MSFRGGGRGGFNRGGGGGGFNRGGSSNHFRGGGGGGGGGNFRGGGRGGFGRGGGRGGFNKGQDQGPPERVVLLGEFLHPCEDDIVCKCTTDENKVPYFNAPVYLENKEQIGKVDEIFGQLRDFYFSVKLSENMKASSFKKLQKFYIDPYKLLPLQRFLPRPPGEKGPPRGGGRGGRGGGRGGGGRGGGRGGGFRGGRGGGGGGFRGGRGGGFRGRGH
T1 sequence (Q9BUR4 whole entry partner): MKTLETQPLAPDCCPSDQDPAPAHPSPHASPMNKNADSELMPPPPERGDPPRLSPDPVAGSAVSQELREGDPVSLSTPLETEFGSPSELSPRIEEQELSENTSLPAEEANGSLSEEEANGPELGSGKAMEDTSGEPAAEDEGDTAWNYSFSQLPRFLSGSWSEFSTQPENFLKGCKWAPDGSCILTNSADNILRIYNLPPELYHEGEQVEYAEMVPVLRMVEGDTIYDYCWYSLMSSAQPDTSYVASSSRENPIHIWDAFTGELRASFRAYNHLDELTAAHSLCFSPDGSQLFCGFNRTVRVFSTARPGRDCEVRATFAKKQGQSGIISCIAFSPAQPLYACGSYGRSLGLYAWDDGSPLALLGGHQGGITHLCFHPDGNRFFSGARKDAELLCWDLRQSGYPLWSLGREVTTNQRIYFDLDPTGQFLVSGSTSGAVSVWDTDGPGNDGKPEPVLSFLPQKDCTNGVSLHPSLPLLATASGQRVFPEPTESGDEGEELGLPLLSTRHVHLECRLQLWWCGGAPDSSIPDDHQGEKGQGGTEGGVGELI
T3 sequence (O14746 whole entry): as the sequence (O14746 whole entry) above
T3 sequence (O60832 whole entry partner): as the sequence (O60832 whole entry partner) above
T3 sequence (Q9NX24 whole entry partner): as the sequence (Q9NX24 whole entry partner) above
T3 sequence (Q9NPE3 whole entry partner): as the sequence (Q9NPE3 whole entry partner) above
T3 sequence (Q9NY12 whole entry partner): as the sequence (Q9NY12 whole entry partner) above
T3 sequence (Q9BUR4 whole entry partner): as the sequence (Q9BUR4 whole entry partner) above
T2 sequence (O14746 whole entry): as the sequence (O14746 whole entry) above
T2 sequence (O60832 whole entry partner): as the sequence (O60832 whole entry partner) above
T2 sequence (Q9NX24 whole entry partner): as the sequence (Q9NX24 whole entry partner) above
T2 sequence (Q9NPE3 whole entry partner): as the sequence (Q9NPE3 whole entry partner) above
T2 sequence (Q9NY12 whole entry partner): as the sequence (Q9NY12 whole entry partner) above
T2 sequence (Q9BUR4 whole entry partner): as the sequence (Q9BUR4 whole entry partner) above
T4 sequence (O14746 whole entry): as the sequence (O14746 whole entry) above
T4 sequence (O60832 whole entry partner): as the sequence (O60832 whole entry partner) above
T4 sequence (Q9NX24 whole entry partner): as the sequence (Q9NX24 whole entry partner) above
T4 sequence (Q9NPE3 whole entry partner): as the sequence (Q9NPE3 whole entry partner) above
T4 sequence (Q9NY12 whole entry partner): as the sequence (Q9NY12 whole entry partner) above
T4 sequence (Q9BUR4 whole entry partner): as the sequence (Q9BUR4 whole entry partner) above

For the compound `C/C(=C\C(=O)Nc1ccccc1C(=O)O)c1ccc2ccccc2c1` [BIBR1532], in series [1], the cellular uptake result was “low cellular uptake” and the pharmacokinetics result is listed as “poor pharmacokinetics”. This compound also returned an IC90 against telomerase of 5.6 ± 0.02 µM.

For `N#C/C(=C\c1ccc(N2CCCCC2)cc1)C(=O)Nc1sc2c(c1C#N)CCC2` [Compound 29a, (2E)-2-Cyano-N-{3-cyano-4H,5H,6H-cyclopenta[b]thiophen-2-yl}-3-[4-(piperidin-1-yl)phenyl]prop-2-enamide], the “% Telomerase Activity in Cancer Cells” value is 66.1 ± 2.4% in series [2], 28.2 ± 3.9% in series [3] and 22.1 ± 4.8% in series [4]. Besides, the IC50 against telomerase stood at 1.7 ± 0.04 µM. Besides, the IC90 at telomerase worked out at 6.3 ± 0.3 µM.

Regarding `N#C/C(=C\c1c[nH]c2ccccc12)C(=O)Nc1sc2c(c1C#N)CCCC2` [Compound 39b, (2E)-2-Cyano-N-(3-cyano-4,5,6,7-tetrahydro-1-benzothiophen-2-yl)-3-(1H-indol-3-yl)prop-2-enamide], the melting point was in the range of 284 to 286 °C. For the same compound, the “% Telomerase Activity in Cancer Cells” value in series [2] was 75.6 ± 7.9%. Further, in series [3], the “% Telomerase Activity in Cancer Cells” value is recorded as 50.3 ± 5.1%. The “% Telomerase Activity in Cancer Cells” value in series [4] is 41.5 ± 6.9%. Further, on telomerase, the IC50 was determined as 2 ± 0.03 µM and the IC90 was determined as 7.1 ± 0.3 µM.

In the case of Imetelstat, the overall survival result in series [5] is on record as “no improvement in overall survival”.

(Values after publication PMC9025901, “New Genetic Bomb Trigger: Design, Synthesis, Molecular Dynamics Simulation, and Biological Evaluation of Novel BIBR1532-Related Analogs Targeting Telomerase against Non-Small Cell Lung Cancer” (Pharmaceuticals, 2022).)
